Assay results taken from PMC6366430 (Journal of Enzyme Inhibition and Medicinal Chemistry, 2019).
Where “and” joins values, the source holds several entries; their conditions need not be identical. Equal values may be shown once. Read-outs that look alike come from different tables or passages of the source.

Tests used:
[1] = molecular target: T1, BuChE from horse serum (Equus caballus, UniProt P81908); assay: biochemical; conditions: mean ± SD of triplicate independent experiments
T1 construct: equine serum butyrylcholinesterase (EqBuChE); from tissue; host or cells: equine (horse) serum
T1 sequence (P81908 whole entry): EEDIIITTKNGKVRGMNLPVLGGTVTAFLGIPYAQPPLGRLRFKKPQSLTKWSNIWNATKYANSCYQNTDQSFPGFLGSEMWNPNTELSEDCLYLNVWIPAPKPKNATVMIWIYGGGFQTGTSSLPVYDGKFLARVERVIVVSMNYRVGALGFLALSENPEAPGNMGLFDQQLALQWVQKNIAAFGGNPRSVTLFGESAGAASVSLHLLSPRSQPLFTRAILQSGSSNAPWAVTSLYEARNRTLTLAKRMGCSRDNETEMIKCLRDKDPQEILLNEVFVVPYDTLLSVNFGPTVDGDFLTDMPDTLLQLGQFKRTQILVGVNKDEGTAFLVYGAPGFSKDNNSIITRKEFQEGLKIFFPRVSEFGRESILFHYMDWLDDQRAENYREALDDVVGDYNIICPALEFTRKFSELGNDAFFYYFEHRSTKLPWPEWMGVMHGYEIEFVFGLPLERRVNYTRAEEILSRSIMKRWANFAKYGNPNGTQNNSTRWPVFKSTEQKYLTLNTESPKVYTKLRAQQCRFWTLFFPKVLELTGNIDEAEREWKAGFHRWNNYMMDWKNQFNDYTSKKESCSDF
Procedure: (§1) Activity of enzymes and inhibition kinetics were determined using a Bio-Rad iMark microplate reader based on a modification of the Ellman method.[14] ^, [15] Compounds were dissolved in DMSO. The assay solution which contained 60 µL 5,5′-Dithiobis(2-nitrobenzoic acid) (DTNB) at 1.1 mM, 30 µL AChE/BuChE at 0.20 U/mL (initial concentration) and 150 µL tested compound solution with different concentrations. Absorbance was then recorded at λ = 415 nm. […]
(§2) serially diluted. Negative (without treatment) and vehicle (DMSO, final concentration 0.2% v/v for AChE and 0.8% v/v for BuChE) controls were kept for reference.
(§3) Following, there were added 60 μL of 5,5′-Dithiobis(2-nitrobenzoic acid) (DTNB, Ellman's reagent) at 1.1 mM and 30 μL of electric eel acetylcholinesterase (EeAChE) or equine serum butyrylcholinesterase (EqBuChE) at 0.20 U/mL in the presence of 1 mg/mL bovine serum albumin (BSA). Absorbance was then recorded using an iMark plate reader (Bio-Rad) equipped with a λ = 415 nm light filter and this measure used as […]
(§4) acetylthiocholine iodide (ACTI) or S-butyrylthiocholine iodide (BCTI) were added and the absorbance recorded after a 10-minute incubation at 30 °C at λ = 415 nm for 3 times within 30 seconds. Enzyme activity was calculated as percentage of untreated control discounting the blank reference. The final inhibitor concentration ranged from 100 – 0.00001 μM for AChE (dillution factor = 10) and from 400 – 0.1 μM for BuChE (dillution factor = 4). IC50 values were calculated on Graphpad Prism 7.0 using the non-linear regression model for dose-response inhibition. […]

[2] = molecular target: T2, AChE from electric eel (Electrophorus electricus, UniProt O42275); assay: biochemical; conditions: for IC50: AChE from electric eel, mean ± SD of triplicate independent experiments
T2 construct: purchased Sigma-Aldrich
T2 sequence (O42275 24-633): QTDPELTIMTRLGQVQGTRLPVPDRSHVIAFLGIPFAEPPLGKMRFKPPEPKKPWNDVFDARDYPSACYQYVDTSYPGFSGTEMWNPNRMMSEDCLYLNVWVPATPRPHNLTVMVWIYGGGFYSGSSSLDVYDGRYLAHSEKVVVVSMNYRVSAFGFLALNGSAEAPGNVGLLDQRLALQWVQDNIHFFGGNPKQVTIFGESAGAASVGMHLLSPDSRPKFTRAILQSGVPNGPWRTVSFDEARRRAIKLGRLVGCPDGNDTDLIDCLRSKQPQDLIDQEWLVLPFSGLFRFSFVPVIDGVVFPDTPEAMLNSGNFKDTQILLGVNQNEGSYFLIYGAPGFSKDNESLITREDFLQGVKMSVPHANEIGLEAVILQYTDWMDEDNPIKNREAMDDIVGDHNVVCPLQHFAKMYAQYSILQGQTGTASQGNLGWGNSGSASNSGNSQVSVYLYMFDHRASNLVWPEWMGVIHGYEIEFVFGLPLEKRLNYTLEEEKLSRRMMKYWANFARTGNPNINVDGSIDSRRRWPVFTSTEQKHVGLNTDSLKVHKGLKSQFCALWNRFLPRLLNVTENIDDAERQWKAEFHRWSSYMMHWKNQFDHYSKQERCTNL
Procedure: as §1, §2, §3, §4

[3] = test system: N2a cells (neuroblastoma); assay: N2a neuroblastoma cell viability, MTT assay; assay type: cell-based, murine; conditions: for Neuroblastoma cell viability, MTT reduction relative to control cells, Mean ± SD: 48 h; for cytotoxicity against N2a cells (in words): 48 h incubation, maximum tested concentration 50 µM
Procedure: N2a cells were cultured in Dulbecco’s modified Eagle’s medium supplemented with 10% fetal bovine serum and 0.1% gentamicin in a 5% CO2 atmosphere. N2a cells were transferred to a 96-well plate (∼10,000 cells/cm^2) and incubated for 24 h, before treatment with the compounds at 10 or 50 µM. Cell viability was evaluated by MTT (3-[4,5-dimethylthiazol-2-yl]-2,5-diphenyl tetrazolium bromide) assay.
Murine neuroblastoma cell (N2a) culture and cell viability assay.
N2a cells were cultured in Dulbecco’s modified Eagle’s medium supplemented with 10% fetal bovine serum and 0.1% gentamicin in a 5% CO2 atmosphere. N2a cells were transferred to a 96-well plate (~10,000 cells/cm2) and incubated for 24 h, before treatment with the compounds at 10 or 50 µM. After being treated, cells were grown for 48 hours. Cell viability was evaluated by MTT (3-[4,5-dimethylthiazol-2-yl]-2,5-diphenyl tetrazolium bromide) assay. MTT was added to a final concentration of 0.5 mg/mL into the wells (samples and controls), and the plates were incubated for 4 h at 37 °C. After, all the media was removed and produced formazan crystals were solubilized with DMSO and quantified by reading the OD at 570 nm in a 96-well plate reader (SpectraMax® Paradigm®, Molecular Devices). Means and standard deviations were calculated from triplicates.

[4] = molecular target: T3, electric eel acetylcholinesterase (EeAChE) (Electrophorus electricus, UniProt O42275); assay: biochemical; assay type: biochemical; conditions: for inhibition type in AChE: Lineweaver–Burk; for Ki’ (non-competitive inhibition constant) on AChE / Ki: ± SD of triplicate; for Ki: read-out: Ki (competitive inhibition constant) on AChE
T3 construct: purchased Sigma-Aldrich
T3 sequence (O42275 24-633): as above
Procedure: as §1
(§5) The enzymatic kinetic of cholinesterase inhibition was determined according to adapted Ellman's method1. All of the solution were prepared in 0.02 M tris-HCl buffer (pH = 7.5), stock solutions of test compounds prepared in DMSO (50 mM), and the experiment conducted in triplicate. To a flat-bottom 96-well transparent plate were added 150μL of treatment solutions with inhibitors 4d and 6a at two different concentrations (Table 2) distributed in eight sets of triplicates each. Eight sets of untreated triplicates were used as negative control. Following, there were added 60 μL of 5,5′-Dithiobis(2-nitrobenzoic acid) (DTNB, Ellman's reagent) at 1.1 mM and 30 μL of electric eel acetylcholinesterase (EeAChE) or equine serum butyrylcholinesterase (EqBuChE) at 0.20 U/mL in presence of 1 mg/mL bovine serum albumin (BSA).
(§6) Absorbance was then recorded using an iMark plate reader (Bio-Rad) equipped with a λ = 415 nm light filter and this measure used as a blank reference. After 10-minute incubation at room temperature, 24 μL of acetylthiocholine iodide (ACTI) or S- […]
(§7) the absorbance recorded after incubation for 0, 5, 10, 15 and 20 minutes at room temperature at λ = 415 nm. The Lineweaver–Burk reciprocal plots were obtained by […]
(§8) plotting a 1/velocity versus 1/[substrate] graph for two different inhibitor concentrations […]
(§9) behavior, in ways the region to where the curves converge determine the type of inhibition observed. Ki, Ki' (competitive and noncompetitive inhibition constants respectively), Km (Michaelis-Menten constant) and Vmax values were calculated with Graphpad Prism 7.0 using the non-linear regression models for enzyme kinetics - inhibiton and enzyme kinects - substrate vs. velocity.

[5] = molecular target: T4, equine serum butyrylcholinesterase (EqBuChE) (Equus caballus, UniProt P81908); assay: biochemical; assay type: biochemical; conditions: for inhibition type in BuChE: Lineweaver–Burk; for Ki’ (non-competitive inhibition constant) on BuChE / Ki: ± SD of triplicate; for Ki: read-out: Ki (competitive inhibition constant) on BuChE
T4 construct: equine serum butyrylcholinesterase (EqBuChE); from tissue; host or cells: equine (horse) serum
T4 sequence (P81908 whole entry): as the sequence (P81908 whole entry) above
Procedure: as §1, §5, §6, §7, §8, §9

[6] = Ferric reducing ability of plasma (FRAP) antioxidant assay; conditions: 50 µM final concentration, 10 min at 37 °C
Procedure: A 0.5 ml solution of coumarin compounds in methanol (50 µM final concentration) was mixed with 4.5 ml of the FRAP reagent. After 10 min of incubation at 37 °C, absorbance at 593 nm was measured using methanol as blank.[20] ^, [21] The calibration curve was prepared with quercetin and the results expressed as: antioxidant index based on quercetine (Q) (mmol Q/mol). The analyses were performed in triplicate.
FRAP solution was freshly prepared by mixing 25 mL acetate buffer (0.30 M) at pH
3.6, 2.5 mL ferric chloride (20 mM) and 2.5 mL 2,4,6-tris(2-pyridyl)-s-triazine (10
mM). In a test tube containing 4.5 mL of FRAP reagent were added 0.5 mL of 500 µM
solutions of 4a-d, 5a-c and 6a-c (in methanol). After a 10-minute incubation at 37°C the
absorbance was recorded in a spectrophotometer at λ = 593 nm using methanol as blank
reference11. A standard curve was obtained by plotting the absorbance read after
of quercetin (Q) equivalent to mol of inhibitor (mmol Q/mol), obtained in triplicates.

O=c1oc2cc(OCCN3CCCCC3)ccc2cc1Br [Compound 4a]
IC50 [1]: 8.37 ± 0.167 µM | IC50 ([2]; read-out: IC50(μM)±SD AChE): 0.18 ± 0.009 µM | SI (selectivity index, BuChE IC50/AChE IC50) [2]: 47 | Neuroblastoma cell viability, MTT reduction relative to control cells, Mean ± SD ([3]; 10 µM): 89.16 ± 11.28% | Neuroblastoma cell viability, MTT reduction relative to control cells, Mean ± SD ([3]; 50 µM): 103.2 ± 13.68% | cytotoxicity against N2a cells (in words) [3]: not cytotoxic

O=c1oc2cc(OCCCN3CCCCC3)ccc2cc1Br [Compound 4b]
IC50 [1]: 15.87 ± 0.007 µM | IC50 ([2]; read-out: IC50(μM)±SD AChE): 0.37 ± 0.008 µM | SI (selectivity index, BuChE IC50/AChE IC50) [2]: 42 | Neuroblastoma cell viability, MTT reduction relative to control cells, Mean ± SD ([3]; 10 µM): 93.34 ± 8.19% | Neuroblastoma cell viability, MTT reduction relative to control cells, Mean ± SD ([3]; 50 µM): 87.60 ± 4.39%

O=c1oc2cc(OCCCCN3CCCCC3)ccc2cc1Br [Compound 4c]
IC50 [1]: 4.92 ± 0.095 µM | IC50 ([2]; read-out: IC50(μM)±SD AChE): 0.55 ± 0.01 µM | SI (selectivity index, BuChE IC50/AChE IC50) [2]: 9 | Neuroblastoma cell viability, MTT reduction relative to control cells, Mean ± SD ([3]; 10 µM): 94.43 ± 4.28% | Neuroblastoma cell viability, MTT reduction relative to control cells, Mean ± SD ([3]; 50 µM): 88.88 ± 19.01%

O=c1oc2cc(OCCCCCN3CCCCC3)ccc2cc1Br [Compound 4d]
IC50 [1]: 5.01 ± 0.253 µM | IC50 ([2]; read-out: IC50(μM)±SD AChE): 0.14 µM and 0.15 µM | SI (selectivity index, BuChE IC50/AChE IC50) [2]: 33 | inhibition type in AChE [4]: mixed-type inhibition | Vmax on AChE ([4]; inhibitor 0.1 μM): 2.209 ± 0.060 µM/min | Vmax on AChE ([4]; inhibitor 0.2 μM): 1.752 ± 0.198 µM/min | Ki’ (non-competitive inhibition constant) on AChE [4]: 157.350 ± 4.674 nM | Ki [4]: 21.3 ± 0.816 nM | inhibition type in BuChE [5]: mixed-type inhibition | Vmax on BuChE ([5]; inhibitor 0.1 μM (so in the source)): 5.791 ± 0.185 µM/min | Vmax on BuChE ([5]; inhibitor 0.2 μM (so in the source)): 4.669 ± 0.229 µM/min | Ki’ (non-competitive inhibition constant) on BuChE [5]: 6621 ± 322 nM | Ki [5]: 2130 ± 148 nM | Neuroblastoma cell viability, MTT reduction relative to control cells, Mean ± SD ([3]; 10 µM): 80.10 ± 7.27% | Neuroblastoma cell viability, MTT reduction relative to control cells, Mean ± SD ([3]; 50 µM): 62.11 ± 10.09%

O=c1oc2cc(OCCN3CCCCC3)ccc2cc1-c1ccccc1 [Compound 5a]
IC50 [1]: 2.5 ± 0.177 µM | IC50 ([2]; read-out: IC50(μM)±SD AChE): 0.14 ± 0.009 µM | SI (selectivity index, BuChE IC50/AChE IC50) [2]: 18 | Neuroblastoma cell viability, MTT reduction relative to control cells, Mean ± SD ([3]; 10 µM): 98.37 ± 8.92% | Neuroblastoma cell viability, MTT reduction relative to control cells, Mean ± SD ([3]; 50 µM): 105.5 ± 14.93% | cytotoxicity against N2a cells (in words) [3]: not cytotoxic

O=c1oc2cc(OCCCN3CCCCC3)ccc2cc1-c1ccccc1 [Compound 5b]
IC50 [1]: 1.86 ± 0.024 µM | IC50 ([2]; read-out: IC50(μM)±SD AChE): 0.24 ± 0.014 µM | SI (selectivity index, BuChE IC50/AChE IC50) [2]: 8 | Neuroblastoma cell viability, MTT reduction relative to control cells, Mean ± SD ([3]; 10 µM): 83.55 ± 6.58% | Neuroblastoma cell viability, MTT reduction relative to control cells, Mean ± SD ([3]; 50 µM): 57.06 ± 8.72% | cytotoxicity against N2a cells (in words) [3]: increase in toxicity

O=c1oc2cc(OCCCCCN3CCCCC3)ccc2cc1-c1ccccc1 [Compound 5c]
IC50 [1]: 0.9 ± 0.001 µM | IC50 ([2]; read-out: IC50(μM)±SD AChE): 0.45 ± 0.036 µM | SI (selectivity index, BuChE IC50/AChE IC50) [2]: 2 | Neuroblastoma cell viability, MTT reduction relative to control cells, Mean ± SD ([3]; 10 µM): 117.4 ± 4.86% | Neuroblastoma cell viability, MTT reduction relative to control cells, Mean ± SD ([3]; 50 µM): 13.47 ± 1.19% | cytotoxicity against N2a cells (in words) [3]: increase in toxicity

CN(C)c1ccc(-c2cc3ccc(OCCN4CCCCC4)cc3oc2=O)cc1 [Compound 6a]
IC50 [1]: 6.73 ± 0.04 µM | SI (selectivity index, BuChE IC50/AChE IC50) [2]: 354 | IC50 ([2]; IC50(μM)±SD AChE): 0.02 ± 0.001 µM | Ki’ (noncompetitive) against AChE [4]: 10 nM | inhibition type in AChE [4]: mixed-type inhibition | Vmax on AChE ([4]; inhibitor 0.01 μM): 1.762 ± 0.128 µM/min | Vmax on AChE ([4]; inhibitor 0.03 μM): 1.254 ± 0.043 µM/min | Ki’ (non-competitive inhibition constant) on AChE [4]: 10.499 ± 0.438 nM | Ki [4]: 1.61 ± 0.066 nM | inhibition type in BuChE [5]: mixed-type inhibition | Vmax on BuChE ([5]; inhibitor 0.01 μM (so in the source)): 4.837 ± 0.399 µM/min | Vmax on BuChE ([5]; inhibitor 0.03 μM (so in the source)): 3.224 ± 0.284 µM/min | Ki’ (non-competitive inhibition constant) on BuChE [5]: 7376 ± 558 nM | Ki [5]: 2580 ± 236 nM | Neuroblastoma cell viability, MTT reduction relative to control cells, Mean ± SD ([3]; 10 µM): 92.15 ± 43.03% | Neuroblastoma cell viability, MTT reduction relative to control cells, Mean ± SD ([3]; 50 µM): 115.9 ± 4.28% | cytotoxicity against N2a cells (in words) [3]: not cytotoxic | FRAP value, antioxidant index based on quercetine (Q) [6]: 7.49 ± 0.61 mmol Q/mol

CN(C)c1ccc(-c2cc3ccc(OCCCN4CCCCC4)cc3oc2=O)cc1 [Compound 6b]
IC50 [1]: 7.27 ± 0.273 µM | IC50 ([2]; read-out: IC50(μM)±SD AChE): 0.33 ± 0.011 µM | SI (selectivity index, BuChE IC50/AChE IC50) [2]: 22 | Neuroblastoma cell viability, MTT reduction relative to control cells, Mean ± SD ([3]; 10 µM): 84.11 ± 11.1% | Neuroblastoma cell viability, MTT reduction relative to control cells, Mean ± SD ([3]; 50 µM): 16.79 ± 8.41% | cytotoxicity against N2a cells (in words) [3]: increase in toxicity | FRAP value, antioxidant index based on quercetine (Q) [6]: 2.42 ± 0.19 mmol Q/mol

CN(C)c1ccc(-c2cc3ccc(OCCCCCN4CCCCC4)cc3oc2=O)cc1 [Compound 6c]
IC50 [1]: 3.85 ± 0.19 µM | IC50 ([2]; read-out: IC50(μM)±SD AChE): 0.92 µM and 0.96 µM | SI (selectivity index, BuChE IC50/AChE IC50) [2]: 4 | Neuroblastoma cell viability, MTT reduction relative to control cells, Mean ± SD ([3]; 10 µM): 59.04 ± 8.21% | Neuroblastoma cell viability, MTT reduction relative to control cells, Mean ± SD ([3]; 50 µM): 10.09 ± 3.09% | cytotoxicity against N2a cells (in words) [3]: increase in toxicity | FRAP value, antioxidant index based on quercetine (Q) [6]: 2.77 ± 0.00 mmol Q/mol
